Measured values from ChEMBL document CHEMBL3997788, “Virtual screening and experimental validation identify novel modulators of nuclear receptor RXRα from Drugbank database” (Bioorg Med Chem Lett, 2017).
Calls of active or inactive are those of the source. No cut-off for these calls is given here.

Assays:
[1] = target: T1, Retinoic acid receptor RXR-alpha (Homo sapiens) (UniProt P19793); assay: Antagonist activity at Myc-tagged RXRalpha (unknown origin) expressed in human MCF-7 cells assessed as inhibition of 9-cis-RA induced receptor transactivation at 10 uM after 24 hrs by luciferase reporter gene assay; format: cell-based
T1 sequence (whole entry): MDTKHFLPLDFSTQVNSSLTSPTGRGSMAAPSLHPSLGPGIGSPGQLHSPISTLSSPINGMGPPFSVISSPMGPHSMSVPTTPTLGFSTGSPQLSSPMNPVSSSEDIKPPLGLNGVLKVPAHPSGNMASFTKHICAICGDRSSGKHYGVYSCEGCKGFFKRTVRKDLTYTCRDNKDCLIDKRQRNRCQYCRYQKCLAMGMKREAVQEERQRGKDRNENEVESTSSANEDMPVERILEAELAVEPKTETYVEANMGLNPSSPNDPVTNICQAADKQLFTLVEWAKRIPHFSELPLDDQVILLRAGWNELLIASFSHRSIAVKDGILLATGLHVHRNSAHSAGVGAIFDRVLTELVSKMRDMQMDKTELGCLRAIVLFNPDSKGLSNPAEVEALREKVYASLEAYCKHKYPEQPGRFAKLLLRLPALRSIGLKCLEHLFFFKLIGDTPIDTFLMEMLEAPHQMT

[2] = target: T2, Retinoic acid receptor RXR-alpha (Homo sapiens, UniProt P19793); assay: Binding affinity to RXRalpha-LBD (unknown origin) measured up to 120 sec by surface plasma resonance method
T2 sequence (P19793 whole entry): T1 sequence (whole entry)

[3] = target: T1, Retinoic acid receptor RXR-alpha (Homo sapiens); assay: Agonist activity at Myc-tagged RXRalpha (unknown origin) expressed in human MCF-7 cells assessed as receptor transactivation at 10 uM after 24 hrs by luciferase reporter gene assay; format: cell-based
[4] = target: T1, Retinoic acid receptor RXR-alpha (Homo sapiens); assay: Agonist activity at Myc-tagged RXRalpha (unknown origin) expressed in human MCF-7 cells assessed as increase in 9-cis-RA induced receptor transactivation at 5 to 10 uM after 24 hrs by luciferase reporter gene assay; format: cell-based
[5] = target: T1, Retinoic acid receptor RXR-alpha (Homo sapiens); assay: Agonist activity at Myc-tagged RXRalpha (unknown origin) expressed in human MCF-7 cells assessed as increase in 9-cis-RA induced receptor transactivation at 1 uM after 24 hrs by luciferase reporter gene assay; format: cell-based
[6] = target: T1, Retinoic acid receptor RXR-alpha (Homo sapiens); assay: Antagonist activity at Myc-tagged RXRalpha (unknown origin) expressed in human MCF-7 cells assessed as inhibition of 9-cis-RA induced receptor transactivation at 100 nM after 24 hrs by luciferase reporter gene assay; format: cell-based
[7] = target: T1, Retinoic acid receptor RXR-alpha (Homo sapiens); assay: Antagonist activity at Myc-tagged RXRalpha (unknown origin) expressed in human MCF-7 cells assessed as inhibition of 9-cis-RA induced receptor transactivation after 24 hrs by luciferase reporter gene assay; format: cell-based
[8] = target: T1, Retinoic acid receptor RXR-alpha (Homo sapiens); assay: Antagonist activity at Myc-tagged RXRalpha (unknown origin) expressed in human MCF-7 cells assessed as inhibition of 9-cis-RA induced receptor transactivation at 1 uM after 24 hrs by luciferase reporter gene assay; format: cell-based

Structure (SMILES)	inhibition [1]	Kd [2] [µM]	further results
O=C1[C@H](CC[C@H](O)c2ccc(F)cc2)[C@@H](c2ccc(O)cc2)N1c1ccc(F)cc1	Active	–	–
CC1=C(C)C(=O)C(C(CCCCCC(=O)O)c2ccccc2)=C(C)C1=O (stereo not drawn)	Active	–	–
O=C1CCc2cc(OCCCCc3nnnn3C3CCCCC3)ccc2N1	Active	–	–
O=C1C=CCC(/C=C/c2c(C3CC3)nc3ccccc3c2-c2ccc(F)cc2)O1 (stereo not drawn)	inactive	138	–
CC(C)c1nc(N(C)S(C)(=O)=O)nc(-c2ccc(F)cc2)c1/C=C/[C@@H](O)C[C@@H](O)CC(=O)O	Active	–	–
CN(CCOc1ccc(CC2SC(=O)NC2=O)cc1)c1ccccn1 (stereo not drawn)	–	–	Activity [3]: inactive; Activity [4]: Active; Activity [5]: inactive
O=c1[nH]c2ccccc2n1CCCN1CCC(n2c(=O)[nH]c3cc(Cl)ccc32)CC1 [DOMPERIDONE]	–	8.8	Activity [3]: inactive; Activity [4]: Active; Activity [5]: inactive
Clc1ccc(CCC(Cn2ccnc2)Sc2c(Cl)cccc2Cl)cc1 (stereo not drawn)	Active	–	–
CC[C@H](C)C(=O)O[C@H]1C[C@@H](O)C=C2C=C[C@H](C)[C@H](CC[C@@H](O)C[C@@H](O)CC(=O)O)[C@H]21	inactive	–	–
O=C(O)/C=C/C=C/C=C/c1c(C2CC2)nc2ccccc2c1-c1ccc(F)cc1	–	5.12	inhibition [6]: Active
CC(C)n1c(/C=C/C(O)CC(O)CC(=O)O)c(-c2ccc(F)cc2)c2ccccc21 (stereo not drawn) [FLUVASTATIN]	Active	11	inhibition [7]: Dose-dependent effect
O=C(O)C[C@H](O)C[C@H](O)/C=C/c1c(C2CC2)nc2ccccc2c1-c1ccc(F)cc1 [PITAVASTATIN CALCIUM]	Active	13.3	inhibition [8]: Active
